Patent US5288709A, “Erythromycin derivatives” (priority 1991, dated 1994)
≈ marks a conversion by molar mass, not a printed value. Like-named read-outs stand apart in the source and are kept apart here.

What was measured:
Experiment in all cases: In-vitro antimicrobial activity primary screen (agar dilution MIC)
Type in all cases: cell-based
Acinetobacter SP CMX 669 = settings: Acinetobacter, SPCMX669, 24 h
Procedure, shortened: (§1)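 Plates: BHI agar + serial aqueous compound dilutions (12). Inoculum: 1:100; 1:10 for Streptococcus/slow growers. Incubation: 35-37° C, 20-24 h. Readout: lowest concentration without growth beyond faint haze or scattered colonies.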

[1] = tested on: Enterobacter aerogenes ATCC 13048; settings: Klebsiella aerogenes, Enterobacter aerogenes ATCC 13048, BHI agar, 20-24 h
Procedure, shortened: as §1

[2] = tested on: Enterococcus faecium ATCC 8043; settings: ATCC8043; Enterococcus faecium ATCC 8043; BHI agar, 20-24 h; read-out: MIC
Procedure, shortened: as §1

Escherichia coli DC-2 = settings: DC2; Escherichia coli DC-2; BHI agar, 20-24 h; read-out: MIC
Procedure, shortened: as §1

Escherichia coli H560 = settings: Escherichia coli H560; BHI agar, 20-24 h; read-out: MIC
Procedure, shortened: as §1

Escherichia coli JUHL = settings: Escherichia coli JUHL; BHI agar, 20-24 h; read-out: MIC
Procedure, shortened: as §1

Escherichia coli SS = settings: BHI agar, 20-24 h, read-out: MIC
Procedure, shortened: as §1

[3] = tested on: Klebsiella pneumoniae ATCC 8045; settings: Klebsiella pneumoniae, ATCC8045, 24 h
Procedure, shortened: as §1

[4] = tested on: Micrococcus luteus ATCC 4698; settings: 20-24 h
Procedure, shortened: as §1

[5] = tested on: Micrococcus luteus ATCC 9341; settings: Micrococcus luteus, ATCC9341, 24 h, BHI agar, 20-24 h
Procedure, shortened: as §1

[6] = tested on: Providencia stuartii CMX 640; settings: Providencia stuartii, CMX640, 24 h
Procedure, shortened: as §1

[7] = tested on: Pseudomonas aeruginosa A5007; settings: Pseudomonas aeruginosa, A5007, 24 h
Procedure, shortened: as §1

[8] = tested on: Pseudomonas aeruginosa BMH10; settings: Pseudomonas aeruginosa, BMH10, 24 h, BHI agar, 20-24 h
Procedure, shortened: as §1

[9] = tested on: Pseudomonas aeruginosa K799/61; settings: Pseudomonas aeruginosa K799/61; BHI agar, 20-24 h; read-out: MIC
Procedure, shortened: as §1

[10] = tested on: Pseudomonas aeruginosa K799/WT; settings: Pseudomonas aeruginosa, K799/WT, 24 h
Procedure, shortened: as §1

Pseudomonas cepacia 2961 = settings: Burkholderia cepacia, 2961, 24 h, BHI agar, 20-24 h
Procedure, shortened: as §1

[11] = tested on: Staphylococcus aureus 45 RAR2; settings: Staphylococcus aureus, 45RAR2, 24 h, BHI agar, 20-24 h
Procedure, shortened: as §1

Staphylococcus aureus 45 = settings: BHI agar, 20-24 h, read-out: MIC
Procedure, shortened: as §1

[12] = tested on: Staphylococcus aureus 642A; settings: BHI agar, 20-24 h, read-out: MIC
Procedure, shortened: as §1

[13] = tested on: Staphylococcus aureus A5177; settings: Staphylococcus aureus, A5177, 24 h, Staphylococcus aureus A5177; BHI agar, 20-24 h
Procedure, shortened: as §1

[14] = tested on: Staphylococcus aureus ATCC 6538P; settings: Staphylococcus aureus, ATCC6538P, 24 h, BHI agar, 20-24 h
Procedure, shortened: as §1

[15] = tested on: Staphylococcus aureus NCTC 10649; settings: NCTC10649, BHI agar, 20-24 h, read-out: MIC
Procedure, shortened: as §1

[16] = tested on: Staphylococcus epidermidis 3519; settings: BHI agar, 20-24 h, read-out: MIC
Procedure, shortened: as §1

[17] = tested on: Streptococcus agalactiae CMX 508; settings: CMX508, BHI agar, 20-24 h, read-out: MIC
Procedure, shortened: as §1

[18] = tested on: Streptococcus bovis A5169; settings: Streptococcus equinus, BHI agar, 20-24 h
Procedure, shortened: as §1

[19] = tested on: Streptococcus pyrogenes 2548 INDUC; settings: BHI agar, 20-24 h, read-out: MIC
Procedure, shortened: as §1

[20] = tested on: Streptococcus pyrogenes EES61; settings: BHI agar, 20-24 h, read-out: MIC
Procedure, shortened: as §1

[21] = tested on: Staphylococcus aureus CMX 553; settings: Staphylococcus aureus, CMX553, 24 h, BHI agar, 20-24 h, read-out: MIC
Procedure, shortened: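 MIC is read as the lowest compound level yielding no growth, slight haze or sparse colonies on the inoculum spot, relative to a drug-free plate. Strains were replicator-inoculated (1:100 dilution) onto BHI agar plates holding twelve dilutions and held at 35-37 °C for 20-24 h, with erythromycin A as comparator.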

Row | Compound | MIC (Acinetobacter SP CMX 669) | MIC [2] | MIC (Escherichia coli DC-2) | MIC (Escherichia coli H560) | MIC (Escherichia coli JUHL) | MIC (Escherichia coli SS) | MIC [3] | MIC [5] | MIC [6] | MIC [7] | MIC [8] | MIC [9] | MIC (Pseudomonas cepacia 2961) | MIC [11] | MIC (Staphylococcus aureus 45) | MIC [12] | MIC [13] | MIC [14] | MIC [15] | MIC [16] | other results
1 | CC[C@H]1OC(=O)[C@H](C)[C@@H](O[C@H]2C[C@@](C)(OC)[C@H](N)[C@H](C)O2)[C@H](C)[C@@H](O[C@@H]2O[C@H](C)C[C@H](N(C)C)[C@H]2O)[C@](C)(O)C[C@@H](C)[C@@H]2O[C@@]1(C)[C@@H](N)[C@H]2C [Example 20, (4"R,9S,11S)-4",11-Diamino-9-deoxo-4",11,12-trideoxy-9,12-epoxyerythromycinA] | 1.56 µg/mL (≈ 2.18 µM) | 0.05 µg/mL (≈ 0.0698 µM) | 3.1 µg/mL (≈ 4.33 µM) | 1.56 µg/mL (≈ 2.18 µM) | 3.1 µg/mL (≈ 4.33 µM) | 0.05 µg/mL (≈ 0.0698 µM) | 1.56 µg/mL (≈ 2.18 µM) | 0.02 µg/mL (≈ 0.0279 µM) | > 100 µg/mL | > 100 µg/mL | 25 µg/mL (≈ 34.9 µM) | 0.78 µg/mL (≈ 1.09 µM) | > 100 µg/mL | 0.39 µg/mL (≈ 0.545 µM) | 0.2 µg/mL (≈ 0.279 µM) | 0.39 µg/mL (≈ 0.545 µM) | 0.78 µg/mL (≈ 1.09 µM) | 0.2 µg/mL (≈ 0.279 µM) | 0.39 µg/mL (≈ 0.545 µM) | 0.2 µg/mL (≈ 0.279 µM) | MIC ([1]; ATCC13048, read-out: MIC): 12.5 µg/mL (≈ 17.5 µM); MIC ([4]; Micrococcus luteus, ATCC4698, 24 h, BHI agar): 0.1 µg/mL (≈ 0.14 µM); MIC ([10]; Pseudomonas aeruginosa K799/WT, BHI agar, 20-24 h): 50 µg/mL (≈ 69.8 µM); MIC [17]: 0.02 µg/mL (≈ 0.0279 µM); MIC ([18]; A5169, 24 h): ≤ 0.005 µg/mL; MIC [19]: 0.78 µg/mL (≈ 1.09 µM); MIC [20]: ≤ 0.005 µg/mL; MIC [21]: 0.2 µg/mL (≈ 0.279 µM)
2 | CC[C@H]1OC(=O)[C@H](C)[C@@H](O[C@H]2C[C@@](C)(OC)[C@H](O)[C@H](C)O2)[C@H](C)[C@@H](O[C@@H]2O[C@H](C)C[C@H](N(C)C)[C@H]2O)[C@](C)(O)C[C@@H](C)[C@@H]2O[C@@]1(C)C(=O)[C@H]2C [Example 21, (4"R,9S)-9-Deoxo-11,12-dideoxy-9,12-epoxy-11-oxoerythromycin A] | 0.39 µg/mL (≈ 0.545 µM) | 0.05 µg/mL (≈ 0.0698 µM) | 3.1 µg/mL (≈ 4.33 µM) | 0.78 µg/mL (≈ 1.09 µM) | 1.56 µg/mL (≈ 2.18 µM) | 0.1 µg/mL (≈ 0.14 µM) | 1.56 µg/mL (≈ 2.18 µM) | ≤ 0.005 µg/mL | > 100 µg/mL | > 100 µg/mL | 12.5 µg/mL (≈ 17.5 µM) | 0.39 µg/mL (≈ 0.545 µM) | > 100 µg/mL | 0.2 µg/mL (≈ 0.279 µM) | 0.1 µg/mL (≈ 0.14 µM) | 0.2 µg/mL (≈ 0.279 µM) | 1.56 µg/mL (≈ 2.18 µM) | 0.2 µg/mL (≈ 0.279 µM) | 0.2 µg/mL (≈ 0.279 µM) | 0.2 µg/mL (≈ 0.279 µM) | MIC ([1]; ATCC13048, 24 h): 6.2 µg/mL (≈ 8.66 µM); MIC ([4]; ATCC4698, BHI agar, read-out: MIC): 0.05 µg/mL (≈ 0.0698 µM); MIC [10]: 100 µg/mL (≈ 140 µM); MIC [17]: 0.01 µg/mL (≈ 0.014 µM); MIC ([18]; read-out: MIC): 0.01 µg/mL (≈ 0.014 µM); MIC [19]: 1.56 µg/mL (≈ 2.18 µM); MIC [20]: 0.01 µg/mL (≈ 0.014 µM); MIC [21]: 0.2 µg/mL (≈ 0.279 µM)
